From patent US7838674B2, “Tetracyclic lactame derivatives” (Novartis AG, priority 2007, dated 2010) come the findings set out here.

Structures can show the parent of a compound that is named as a salt.

For the assay, the target named is T1, MAPKAPK2 enzyme (HIS-MK2, Invitrogen PV4019) (Homo sapiens, UniProt P49137).
T1 construct: His; purchased Invitrogen PV4019
T1 sequence (P49137 whole entry): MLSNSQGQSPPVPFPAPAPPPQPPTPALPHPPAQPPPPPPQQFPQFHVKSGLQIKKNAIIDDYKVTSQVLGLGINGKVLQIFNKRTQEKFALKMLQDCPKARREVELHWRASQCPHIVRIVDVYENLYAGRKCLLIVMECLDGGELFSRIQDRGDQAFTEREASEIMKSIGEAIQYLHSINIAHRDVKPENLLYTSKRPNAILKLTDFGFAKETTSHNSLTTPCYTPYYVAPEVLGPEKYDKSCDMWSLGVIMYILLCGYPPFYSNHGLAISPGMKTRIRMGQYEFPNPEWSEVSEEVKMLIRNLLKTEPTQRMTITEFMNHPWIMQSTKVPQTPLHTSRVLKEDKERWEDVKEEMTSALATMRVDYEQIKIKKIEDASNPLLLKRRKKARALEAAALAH
Put plainly: Alternative MAPKAPK2 assay (Caliper microfluidic mobility shift, HSP27-peptide). Conditions: HIS-MK2 0.013 nM, ATP 10 μM, 60 min at 30° C. It is filed as biochemical.
As for `COc1ccc(-c2cc3c(cn2)CCc2c-3[nH]c3c2C(=O)N[C@@H]2CC[C@H]32)cc1` (racemic) [Example 50, (+)-2-(2-Amino-cyclobutyl)-8-(4-methoxy-phenyl)-4,5-dihydro-1H-pyrrolo[2,3-f]isoquinoline-3-carboxylic acid lactam], the IC50 (usually the point on the concentration scale where inhibition reaches its midpoint) turned out to be 21 nM.

Turning to `COc1ccc(-c2cc3c(cn2)CCc2c-3[nH]c3c2C(=O)N[C@@H]2C[C@H]32)cc1` (racemic) [Example 52, (+)-2-(2-Amino-cyclopropyl)-8-(4-methoxy-phenyl)-4,5-dihydro-1H-1,7-diaza-cyclopenta[a]naphthalene-3-carboxylic acid lactam], the half-maximal inhibitory concentration (IC50) stood at 35 nM.

Take `O=C1NC2CCC2c2[nH]c3c(c21)CCc1cnc(-c2cccc(F)c2)cc1-3` (single isomer, unassigned; (+)) [Example 51, (+)-2-(2-Amino-cyclobutyl)-8-(3-fluoro-phenyl)-4,5-dihydro-1H-pyrrolo[2,3-f]isoquinoline-3-carboxylic acid lactam]: the 50% inhibitory concentration (IC50) stood at 28 nM.

For `COc1ccc(-c2cc3c(cn2)CCc2c4c(n(C)c2-3)CC2(CNC2)NC4=O)cc1` [Example 38, 2-(3-Amino-azetidin-3-ylmethyl)-8-(4-methoxy-phenyl)-1-methyl-4,5-dihydro-1H-pyrrolo[2,3-f]isoquinoline-3-carboxylic acid lactam hydrochloride], the half-inhibitory concentration (IC50) stood at 20 nM.

In the case of `COc1ccc(-c2cc3c(cn2)CCc2c-3oc3c2C(=O)NC2(CNC2)C3)cc1` [Example 41, 2-(3-Amino-azetidin-3-ylmethyl)-8-(4-methoxy-phenyl)-4,5-dihydro-furo[2,3-f]isoquinoline-3-carboxylic acid lactam hydrochloride], the IC50 worked out at 21 nM.

As for `COc1ccc(-c2cc3c(cn2)CCc2c-3[nH]c3c2C(=O)NCC32CC2)cn1` [Example 54, 2-(1-Aminomethyl-cyclopropyl)-8-(6-methoxy-pyridin-3-yl)-4,5-dihydro-1H-pyrrolo[2,3-f]isoquinoline-3-carboxylic acid lactam], the concentration for half-maximal inhibition (IC50) is 22 nM.

In the case of `COc1cncc(-c2cc3c(cn2)CCc2c-3[nH]c3c2C(=O)NCC32CC2)c1` [Example 55, 2-(1-Aminomethyl-cyclopropyl)-8-(5-methoxy-pyridin-3-yl)-4,5-dihydro-1H-pyrrolo[2,3-f]isoquinoline-3-carboxylic acid lactam], the half-maximal inhibitory concentration (IC50) worked out at 11 nM.

Regarding `CCOc1ccc(-c2ncc3c(n2)-c2c(c4c(n2C)CC2(CNC2)NC4=O)CC3)cc1` [Example 59, 2-(3-Amino-azetidin-3-ylmethyl)-8-(4-ethoxyphenyl)-1-methyl-4,5-dihydro-1H-1,7,9-triaza-cyclopenta[a]naphthalene-3-carboxylic acid lactam hydrochloride], the IC50 worked out at 13 nM.

As to `N#Cc1ccc(-c2cc3c(cn2)CCc2c-3[nH]c3c2C(=O)NC2(CC2)C3)cc1` [Example 60, 2-(1-Amino-cyclopropylmethyl)-8-(4-cyano-phenyl)-4,5-dihydro-1H-pyrrolo[2,3-f]isoquinoline-3-carboxylic acid lactam], the IC50 worked out at 75 nM.

As to `N#Cc1ccc(-c2cc3c(cn2)CCc2c-3[nH]c3c2C(=O)NC2(CC2)C3)cn1` [Example 63, 2-(1-Amino-cyclopropylmethyl)-8-(6-cyano-pyridin-3-yl)-4,5-dihydro-1H-pyrrolo[2,3-f]isoquinoline-3-carboxylic acid lactam], the half-maximal inhibitory concentration (IC50) was 89 nM.

As for `O=C1NC2(CC2)Cc2[nH]c3c(c21)CCc1cnc(-c2ccc(CN4CCCCC4)cc2)cc1-3` [Example 65, 2-(1-Amino-cyclopropylmethyl)-8-(4-piperidin-1-ylmethyl-phenyl)-4,5-dihydro-1H-pyrrolo[2,3-f]isoquinoline-3-carboxylic acid lactam], the half-inhibitory concentration (IC50) worked out at 46 nM.

With `O=C1NC2(CC2)Cc2[nH]c3c(c21)CCc1cnc(-c2ccc4c(c2)OCCO4)cc1-3` [Example 66, 2-(1-Amino-cyclopropylmethyl)-8-(2,3-dihydro-benzo[1,4]dioxin-6-yl)-4,5-dihydro-1H-pyrrolo[2,3-f]isoquinoline-3-carboxylic acid lactam], the IC50 was determined as 60 nM.

In the case of `CN(C)c1ccc(-c2cc3c(cn2)CCc2c-3[nH]c3c2C(=O)NC2(CC2)C3)cn1` [Example 68, 2-(1-Amino-cyclopropylmethyl)-8-6-dimethylamino-pyridin-3-yl-4,5-dihydro-1H-pyrrolo[2,3-f]isoquinoline-3-carboxylic acid lactam], the IC50 was determined as 49 nM.

For the compound `Cc1ccc(-c2cc3c(cn2)CCc2c-3[nH]c3c2C(=O)NC2(CC2)C3)cn1` [Example 69, 2-(1-Amino-cyclopropylmethyl)-8-(6-methyl-pyridin-3-yl)-4,5-dihydro-1H-pyrrolo[2,3-f]isoquinoline-3-carboxylic acid lactam], the half-maximal inhibitory concentration (IC50) amounted to 35 nM.

For `C#Cc1cc(-c2cc3c(cn2)CCc2c-3[nH]c3c2C(=O)NC2(CC2)C3)ccc1OC` [Example 75, 2-(1-Amino-cyclopropylmethyl)-8-(3-ethynyl-4-methoxy-phenyl)-4,5-dihydro-1H-pyrrolo[2,3-f]isoquinoline-3-carboxylic acid lactam], the IC50 is 98 nM.

Regarding `CC(C)(O)CCc1ccc(-c2cc3c(cn2)CCc2c-3[nH]c3c2C(=O)NC2(CC2)C3)cc1` [Example 77, 2-(1-Amino-cyclopropylmethyl)-8-[4-(3-hydroxy-3-methyl-butyl)-phenyl]-4,5-dihydro-1H-pyrrolo[2,3-f]isoquinoline-3-carboxylic acid lactam], the half-maximal inhibitory concentration (IC50) is 85 nM.

For `CC(C)(N)CCc1ccc(-c2cc3c(cn2)CCc2c-3[nH]c3c2C(=O)NC2(CC2)C3)cc1` [Example 78, 2-(1-Amino-cyclopropylmethyl)-8-[4-(3-amino-3-methyl-butyl)-phenyl]-4,5-dihydro-1H-pyrrolo[2,3-f]isoquinoline-3-carboxylic acid lactam], the IC50 was 18 nM.

Regarding `CC(C)(N)C#Cc1ccc(-c2cc3c(cn2)CCc2c-3[nH]c3c2C(=O)NC2(CC2)C3)cc1` [Example 82, 2-(1-Amino-cyclopropylmethyl)-8-[4-(3-amino-3-methyl-but-1-ynyl)-phenyl]-4,5-dihydro-1H-pyrrolo[2,3-f]isoquinoline-3-carboxylic acid lactam], the 50% inhibitory concentration (IC50) worked out at 24 nM.

On to `Nc1ccc(-c2cc3c(cn2)CCc2c-3[nH]c3c2C(=O)NC2(CCC2)C3)cn1` [Example 101, 2-(1-Amino-cyclobutylmethyl)-8-(6-amino-pyridin-3-yl)-4,5-dihydro-1H-pyrrolo[2,3-f]isoquinoline-3-carboxylic acid lactam], for which the 50% inhibitory concentration (IC50) amounted to 98 nM.

For the compound `Cc1cncc(-c2cc3c(cn2)CCc2c-3[nH]c3c2C(=O)NC2(CCC2)C3)c1` [Example 102, 2-(1-Amino-cyclobutylmethyl)-8-(5-methyl-pyridin-3-yl)-4,5-dihydro-1H-pyrrolo[2,3-f]isoquinoline-3-carboxylic acid lactam], the IC50 came to 62 nM.

In the case of `O=C1NC2(CCC2)Cc2[nH]c3c(c21)CCc1cnc(-c2cccnc2)cc1-3` [Example 104, 2-(1-Amino-cyclobutylmethyl)-8-pyridin-3-yl-4,5-dihydro-1H-pyrrolo[2,3-f]isoquinoline-3-carboxylic acid lactam], the IC50 came out at 67 nM.

Regarding `Cc1ccc(-c2cc3c(cn2)CCc2c-3[nH]c3c2C(=O)NCC32CC2)cn1` [Example 111, 2-(1-Aminomethyl-cyclopropyl)-8-(6-methyl-pyridin-3-yl)-4,5-dihydro-1H-pyrrolo[2,3-f]isoquinoline-3-carboxylic acid lactam], the IC50 amounted to 5 nM.

As to `O=C1NCC2(CC2)c2[nH]c3c(c21)CCc1cnc(-c2cncc(F)c2)cc1-3` [Example 112, 2-(1-Aminomethyl-cyclopropyl)-8-(5-fluoro-pyridin-3-yl)-4,5-dihydro-1H-pyrrolo[2,3-f]isoquinoline-3-carboxylic acid lactam], the IC50 was 9 nM.

Regarding `N#Cc1cncc(-c2cc3c(cn2)CCc2c-3[nH]c3c2C(=O)NCC32CC2)c1` [Example 113, 2-(1-Aminomethyl-cyclopropyl)-8-(5-cyano-pyridin-3-yl)-4,5-dihydro-1H-pyrrolo[2,3-f]isoquinoline-3-carboxylic acid lactam], the 50% inhibitory concentration (IC50) worked out at 23 nM.

Regarding `O=C1NCC2(CC2)c2[nH]c3c(c21)CCc1cnc(-c2ccc4c(c2)OCCO4)cc1-3` [Example 114], the IC50 came out at 41 nM.

In the case of `N#Cc1cc(-c2cc3c(cn2)CCc2c-3[nH]c3c2C(=O)NCC32CC2)ccc1F` [Example 115], the IC50 came to 36 nM.

Regarding `CN(C)c1ccc(-c2cc3c(cn2)CCc2c-3[nH]c3c2C(=O)NCC32CC2)cn1` [Example 117], the IC50 was 19 nM.

As to `CC(C)(N)CCc1ccc(-c2cc3c(cn2)CCc2c-3[nH]c3c2C(=O)NCC32CC2)cc1` [Example 118, 8-[4-(3-Amino-3-methyl-butyl)-phenyl]-2-(1-aminomethyl-cyclopropyl)-4,5-dihydro-1H-pyrrolo[2,3-f]isoquinoline-3-carboxylic acid lactam], the half-maximal inhibitory concentration (IC50) is 16 nM.

Turning to `CC(C)(O)C#Cc1ccc(-c2cc3c(cn2)CCc2c-3[nH]c3c2C(=O)NCC32CC2)cc1` [Example 119], the half-inhibitory concentration (IC50) is 89 nM.

As for `C#Cc1cc(-c2cc3c(cn2)CCc2c-3[nH]c3c2C(=O)NCC32CC2)ccc1OC` [Example 120, 2-(1-Aminomethyl-cyclopropyl)-8-(3-ethynyl-4-methoxy-phenyl)-4,5-dihydro-1H-pyrrolo[2,3-f]isoquinoline-3-carboxylic acid lactam], the IC50 is 40 nM.

Take `O=C1NCC2(CC2)c2[nH]c3c(c21)CCc1cnc(-c2cncnc2)cc1-3` [Example 123, 2-(1-Aminomethyl-cyclopropyl)-8-pyrimidin-5-yl-4,5-dihydro-1H-pyrrolo[2,3f]isoquinoline-3-carboxylic acid lactam]: the concentration for half-maximal inhibition (IC50) came to 30 nM.

For the compound `O=C1NCC2(CC2)c2[nH]c3c(c21)CCc1cnc(-c2ccncc2)cc1-3` [Example 124, 2-(1-Aminomethyl-cyclopropyl)-8-pyridin-4-yl-4,5-dihydro-1H-pyrrolo[2,3-f]isoquinoline-3-carboxylic acid lactam], the IC50 turned out to be 55 nM.
